These are literature values, as cited in patent US20190151294A1, “TREATMENT OF ALCOHOLISM AND DEPRESSION AND/OR DYSPHORIC MOOD USING IBUDILAST” (MEDICINOVA, INC., priority 2016, published 2019).

In this series the test system is P and HAD1 rats and mouse model of ethanol dependence. The settings on record: in these models of elevated alcohol intake; cited from earlier work.

Turning to `OCCOCCN1CCN(C2=Nc3ccccc3Sc3ccccc32)CC1` [quetiapine], the “selective reduction of ethanol drinking” value was “do not selectively reduce ethanol drinking”.

For `CC[C@@H](C(N)=O)N1CCCC1=O` [levatiracetam], the “selective reduction of ethanol drinking” value was “do not selectively reduce ethanol drinking”.
